# Measured values: US20020193850A1, “Use of photodynamic therapy to treat prostatic tissue” (priority 1993, published 2002)
# Like-named read-outs stand apart in the source and are kept apart here. Marks after values point to notes of the source that are not given here.
# Columns and labels:
# [1] = 1.0 mg/kg, 24 hours after injection
# Method: (§1) Animals: Adult mongrel dogs were used in all experiments. Dogs were housed 1/cage and given water and canine chow (Purina Chow, Ralston Purina Corp.) ad libitum.
# (§2) Photosensitive composition: The photosensitizer, tin ethyl etiopurpurin was used. The photosensitizer was administered in anesthetized (xylazine/ketamine) dogs as an emulsion via antecubital vein 24 hours prior to light treatment.
# Photosensitizer extraction: The animals were injected with 1.0 mg/kg of the photosensitizer. Twenty-four hours later, prostate and other tissues were removed from euthanized animals. Tissue samples were removed from the periurethral prostate and the more peripheral regions. Additionally, the mucosa of the urethra was dissected and its photosensitizer content determined. Bladder mucosa and muscularis were also removed. Tissue was weighed and homogenized with a biohomogenizer (Biospec Products, Inc., Bartleville, Okla.) in 3% acetic acid. After homogenization, a 3:1 ethyl acetate:glacial acetic acid mixture was added and mixed vigorously. The sample was then frozen at −20° C. for at least two hours after which it was thawed and saturated sodium acetate added. The ethyl acetate layer, containing the photosensitizer, was removed and its concentration determined using absorbance spectrophotometry (Response II spectrophotomer, Gilford, Oberlin, Ohio).
# [2] = tested on: R3327AT prostate tumor; assay: R3327AT prostate tumor model, photodynamic therapy with 659 YAG or 660 Dye laser (Example 3); format: in vivo, male Copenhagen rats; settings: 1.5 mg/kg
# Method: The R3327AT prostate tumor model was used in male Copenhagen rats which were injected with 1.5 mg/kg body wt. of SnET2 (Tin Ethyl Etiopurpurin Emulsion, PDT Pharmaceuticals). Each rat had one flank tumor (R3327AT). After two weeks, the tumors ranged from 1.0 to 1.6 cm in length. Twenty four hours (+/−2 hrs.) after SnET2 injection the tumor area received photodynamic therapy using either a 659 YAG or 660 Dye laser fiber optically coupled to a 3-way fiber splitter.
# Tumor temperatures were monitored using a 23 gge. hypodermic probe (YSI) placed percutaneously beneath the treated tumor. If needed, the tumors were cooled by a jet of cool air. Tumor diameters were measured and recorded three times per week.
# Tumor growth was monitored by calculating volumes from the recorded measurements of tumor width, height and length. The rate of growth is presented as the number of days required for an individual tumor to reach 2, 5 or 10 times initial volume. This method of analysis of tumor growth accounts for variations due to differing initial tumor volume (Gibson and Hilf, Cancer Research, 1990). […] Only at the 200 Joule fluence level was there any significant difference between the YAG and Dye lasers in producing tumor growth delay.
# [3] = tested on: R3327AT prostate tumor; assay: R3327AT prostate tumor model, photodynamic therapy, tumor growth delay (Example 2); format: in vivo, male Copenhagen rats; settings: drug dose 1.5 mg/kg
# Method: The R3327AT prostate tumor model was used in male Copenhagen rats which were injected with 1.5 mg/kg body wt. of SnET2 (tin ethyl etiopurpurin Emulsion, (0.94 mg/ml) PDT Pharmaceuticals). Each rat had one flank tumor (R3327AT). After two weeks, the tumors ranged from 1.0 to 1.6 cm in length. Twenty four hours after TEP injection, the tumor area received photodynamic therapy with a light source of a KTP pumped 660 dye laser (PDT Systems). The KTP/660 dye laser was tuned to 660 nm; power density: 200 mw/cm^2; light dose: 0, 200, 300 and 400 Joules. Tumor temperatures were monitored using a 23 gge. hypodermic probe (YSI) placed percutaneously beneath the treated tumor. If needed, the tumors were cooled by a jet of cool air. Tumors were measured and recorded three times per week.
# The linear regression of tumor growth (represented as tumor volume) for each rat was plotted. The number of days it took the treated tumors to reach their initial tumor volume at the time of treatment was determined by the intercept with a horizontal line drawn at the mean initial tumor volume for all groups. The mean number of days for each light/drug dose group to reach its initial tumor size is recorded in Table 3 below.
# [4] = tested on: prostatic tissue; assay: Transurethral photodynamic therapy of the prostate
# Method: as §1, §2
# Light source and delivery: An LTI 660 dye laser (PDT Systems, Santa Barbara, Calif.) pumped by a KTP/YAG laser (Laserscope, San Jose, Calif.), was used as a light source. Laser light was delivered to the prostate via a 400 micron optical fiber fitted with a 2.0 cm flexible cylindrical diffuser tip (PDT Systems, Inc., Santa Barbara, Calif.).
# Tissue Preparation: On removal, the prostates were photographed and then fixed in a 10% buffered formalin solution. After fixation, tissue was sectioned at 5u intervals and stained with H & E. Sections of the urinary bladder were removed and prepared in a similar manner.
# Prostate treatment: The animals were injected with 1.0 mg/kg of the photosensitizer. Twenty-four hours after photosensitizer administration the animals were anesthetized with intravenous sodium barbiturate. The animals were intubated and maintained on a respirator during light treatment. They were treated in the dorsolithotomy position. The 2 cm. diffusing tip of the laser fiber was localized in the prostatic urethra under transrectal ultrasound guidance. A Bruel and Kreuger 7.0 megahertz ultrasound scanner with a transrectal probe was used. The laser fiber was placed within a transparent 10F Stamey catheter (TFX Medical, Duluth, Ga.) which was used as a laser fiber carrier. The tip of the catheter was positioned immediately outside the bladder neck. Once positioned, the prostate was treated with 300 (260 mW/cm^2) joules of laser light. The animals were then recovered and returned to their cages, Indwelling catheters were not used after treatment.
# [5] = Mean +/- SD, listed as Photosensitizer, 1 mg/kg
structure (smiles),measurement,setting,value
"CCOC(=O)C1=Cc2c3nc(cc4nc(cc5[n-]c(cc6[n-]c2c(C)c6CC)c(C)c5CC)C(C)=C4CC)[C@@H](C)[C@]13CC.[Cl-].[Cl-].[Sn] (racemic) [SnET2, tin ethyl etiopurpurin]",Tissue levels of photosensitizer compared with plasma levels,[1],significantly greater than plasma levels
same,"Photosensitizer concentration, Bladder",[1]; Dog 1,0.2 µg/g
same,"Photosensitizer concentration, Prostate",[1]; Dog 1,2.1 * ug/g
same,"Photosensitizer concentration, Urethra",[1]; Dog 1,0.5 µg/g
same,"Photosensitizer concentration, Bladder",[1]; Dog 2,0.2 µg/g
same,"Photosensitizer concentration, Kidney",[1]; Dog 2,2.5 µg/g
same,"Photosensitizer concentration, Liver",[1]; Dog 2,6.7 µg/g
same,"Photosensitizer concentration, Muscle",[1]; Dog 2,0.3 µg/g
same,"Photosensitizer concentration, Plasma (24-hr)",[1]; Dog 2,0.1 * * ug/ml
same,"Photosensitizer concentration, Prostate",[1]; Dog 2,0.8 µg/g
same,"Photosensitizer concentration, Spleen",[1]; Dog 2,0.8 µg/g
same,"Photosensitizer concentration, Urethra",[1]; Dog 2,0.3 µg/g
same,"Photosensitizer concentration, Bladder",[1]; Dog 3,0.2 µg/g
same,"Photosensitizer concentration, Kidney",[1]; Dog 3,2.9 µg/g
same,"Photosensitizer concentration, Liver",[1]; Dog 3,6.1 µg/g
same,"Photosensitizer concentration, Muscle",[1]; Dog 3,0.2 µg/g
same,"Photosensitizer concentration, Plasma (24-hr)",[1]; Dog 3,0.1 µg/mL
same,"Photosensitizer concentration, Prostate",[1]; Dog 3,0.9 µg/g
same,"Photosensitizer concentration, Spleen",[1]; Dog 3,0.8 µg/g
same,"Photosensitizer concentration, Urethra",[1]; Dog 3,0.2 µg/g
same,"Photosensitizer concentration, Kidney",[1]; Mean +/- SD,2.7 ± 0.2 µg/g
same,"Photosensitizer concentration, Liver",[1]; Mean +/- SD,6.7 ± 0.2 µg/g
same,"Photosensitizer concentration, Muscle",[1]; Mean +/- SD,0.3 ± 0.1 µg/g
same,"Photosensitizer concentration, Plasma (24-hr)",[1]; Mean +/- SD,0.1 ± 0 µg/mL
same,"Photosensitizer concentration, Spleen",[1]; Mean +/- SD,0.8 ± 0 µg/g
same,"Photosensitizer concentration, Bladder",[1]; [5],0.2 ± 0 µg/g
same,"Photosensitizer concentration, Prostate",[1]; [5],1.3 ± 0.6 µg/g
same,"Photosensitizer concentration, Urethra",[1]; [5],0.3 ± 0.1 µg/g
same,Difference between 660 Dye and 659 YAG lasers as light source for photodynamic therapy,"[2]; 200 mw/cm^2, significant difference only at the 200 Joule fluence level",no consistent significant difference
same,Tumor growth delay from initial to 2 times initial volume as compared to controls,"[2]; 659 YAG and 660 Dye lasers, 200-400 Joules, especially at the 400 Joule level",effective in delaying tumor growth
same,# of Days of Growth Delay,[3]; Group II: light dose 0 Joules,0 days
same,# of Days of Growth Delay,"[3]; Group III: light dose 200 Joules, 660 nm, 200 mw/cm^2",6.2 ± 1.2 days
same,# of Days of Growth Delay,"[3]; Group IV: light dose 300 Joules, 660 nm, 200 mw/cm^2",5.8 ± 0.8 days
same,# of Days of Growth Delay,"[3]; Group V: light dose 400 Joules, 660 nm, 200 mw/cm^2",11.4 ± 3.7 days
same,Prostate effects of photosensitizer and light,"[4]; 1.0 mg/kg, light 24 hours later, 300 joules (260 mW/cm^2), transurethral",showed evidence of a photodynamic effect
same,Urethral mucosa,"[4]; 3 weeks following treatment, 1.0 mg/kg, 300 joules",The urethral mucosa had regenerated
same,Urethral epithelium,"[4]; 48 hours following photodynamic therapy, 1.0 mg/kg, 300 joules",loss of the urethral epithelium
same,Animal recovery: voiding,"[4]; after photodynamic therapy, no indwelling catheter, 1.0 mg/kg, 300 joules",All animals were able to void spontaneously
same,Animal recovery: hematuria,"[4]; after photodynamic therapy, 1.0 mg/kg, 300 joules",Two of the animals developed gross hematuria
same,Changes in the bladder,"[4]; after photodynamic therapy, believed due to movement or inaccurate placement of the light guide",In two of the animals there were extensive changes in the bladder
same,Histology of prostate,"[4]; prostate removed 3 weeks following treatment, 1.0 mg/kg, 300 joules",glandular atrophy and replacement with fibrous tissue
same,Histologic examination of prostate around the urethra,"[4]; prostates removed 48 hours following photodynamic therapy, 1.0 mg/kg, 300 joules",extensive hemmorhagic necrosis
